From patent US9873690B2, “3-indol substituted derivatives, pharmaceutical compositions and methods for use” (Pfizer Inc., priority 2015, dated 2018)

Target: T1, hTDO2 (Homo sapiens, UniProt P48775)
T1 construct: endogenous in cells; host or cells: A172 human brain glioblastoma cells (ATCC CRL-1620)
Assay: Cellular assay for TDO2 activity determination in A172 cells
Assay type: cell-based
Conditions: human glioblastoma A172 cells naturally expressing hTDO2; overnight incubation; kynurenine by absorbance at 480 nm
Method: The compounds of formula I inhibit the activity of human TDO2 in cells that constitutively express TDO2, such as A172 cells. A172 is a cell line derived from human brain glioblastoma cells. The cells are available from the American Type Culture Collection (ATCC®) as CRL-1620™.
The assay (adapted from Pilotte L et al., Proc Natl Acad Sci USA, 2012, 109(7), 2497-502) was performed in 96-well flat bottom plates seeded with human glioblastoma A172 cells, naturally expressing hTDO2 (prepared as described in Tilman et al., Mol Cancer, 2007, 17(6), 80), at a concentration of 1.25×10^4 cells/well in a final volume of 200 μL. To determine TDO, the cells were incubated overnight at 37° C. at 5% CO2 in IMDM (Invitrogen) supplemented with 2% FBS and 2% penicillin/streptomycin in the presence of the compounds of the present invention, at different concentrations.
The plates were then centrifuged 5 min at 1000 rpm, and 100 μL of the supernatant were collected in a conical plate, 30 μL of TCA 30% were added and a further centrifuged at 3000×g for 10 minutes. 100 μL of the supernatant were collected in a flat bottomed plate and 100 μL of 2% (w/v) 4-(dimethylamino)-benzaldehyde in acetic acid and incubated for 5 min at room temperature. Kynurenine concentrations were determined by measuring the absorbance at 480 nm. A standard curve was made with pure kynurenine. The TDO activity was measured as described above using ten serial concentrations of the compounds of the present invention. Data were fitted using the Prism™ software (GraphPad Software, Inc.) using standard parameters.
The biological activity of representative compounds in human brain glioblastoma cells as determined in the above-referenced assay is summarized in the following table: […]

T1 sequence (P48775 whole entry): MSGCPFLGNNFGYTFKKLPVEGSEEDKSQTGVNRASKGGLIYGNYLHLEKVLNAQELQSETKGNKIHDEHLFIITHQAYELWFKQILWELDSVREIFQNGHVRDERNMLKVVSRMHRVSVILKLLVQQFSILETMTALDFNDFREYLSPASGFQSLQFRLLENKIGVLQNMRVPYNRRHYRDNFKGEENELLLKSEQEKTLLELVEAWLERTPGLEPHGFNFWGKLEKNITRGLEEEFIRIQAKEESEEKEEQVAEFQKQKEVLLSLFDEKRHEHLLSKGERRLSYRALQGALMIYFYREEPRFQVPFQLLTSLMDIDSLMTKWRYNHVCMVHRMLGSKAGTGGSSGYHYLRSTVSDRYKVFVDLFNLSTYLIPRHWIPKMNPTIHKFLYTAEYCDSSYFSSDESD

SMILES	IC50 [nM]
CNC(=O)C(CN1C(C)c2cc(-c3c[nH]c4cc(F)ccc34)ccc2S1(=O)=O)OC (single isomer, unassigned; (+)) [Example 105, (+)-3-(5-(6-fluoro-1H-indol-3-yl)-3-methyl-1,1-dioxidobenzo[d]isothiazol-2(3H)-yl)-2-methoxy-N-methylpropanamide]	188
CNC(=O)C(CN1C(C)c2cc(-c3c[nH]c4cc(F)ccc34)ccc2S1(=O)=O)OC (single isomer, unassigned; (+)) [Example 107, (+)-3-(5-(6-fluoro-1H-indol-3-yl)-3-methyl-1,1-dioxidobenzo[d]isothiazol-2(3H)-yl)-2-methoxy-N-methylpropanamide]	499
CCOC(=O)NCCN1C(C)c2cc(-c3c[nH]c4cc(F)ccc34)ccc2S1(=O)=O (single isomer, unassigned; (+)) [Example 110, (+)-ethyl (2-(5-(6-fluoro-1H-indol-3-yl)-3-methyl-1,1-dioxidobenzo[d]isothiazol-2(3H)-yl)ethyl)carbamate]	157
CNC(=O)CN1C(C)c2cc(-c3c[nH]c4cc(F)ccc34)ccc2S1(=O)=O (single isomer, unassigned; (+)) [Example 112, (+)-2-(5-(6-fluoro-1H-indol-3-yl)-3-methyl-1,1-dioxidobenzo[d]isothiazol-2(3H)-yl)-Nmethylacetamide]	142
CC1c2cc(-c3c[nH]c4cc(F)ccc34)ccc2S(=O)(=O)N1CC(=O)N(C)C (single isomer, unassigned; (+)) [Example 114, (+) 2-(5-(6-fluoro-1H-indol-3-yl)-3-methyl-1,1-dioxidobenzo[d]isothiazol-2(3H)-yl)-N,N-dimethylacetamide]	239
CC1c2cc(-c3c[nH]c4cc(F)ccc34)ccc2S(=O)(=O)N1CC(N)=O (single isomer, unassigned; (+)) [Example 115]	88
CC1c2cc(-c3c[nH]c4cc(F)ccc34)ccc2S(=O)(=O)N1CCN1CCOCC1 (single isomer, unassigned; (+)) [Example 118, (+)-5-(6-fluoro-1H-indol-3-yl)-3-methyl-2-(2-morpholinoethyl)-2,3-dihydrobenzo[d]isothiazole 1,1-dioxide]	191
CC1c2cc(-c3c[nH]c4cc(F)ccc34)ccc2S(=O)(=O)N1C1CCNC(=O)C1 (single isomer, unassigned; (+)) [Example 120]	91
CC1c2cc(-c3c[nH]c4cc(F)ccc34)ccc2S(=O)(=O)N1C1CCNC(=O)C1 (single isomer, unassigned; (+)) [Example 121, (+)-4-(-5-(6-fluoro-1H-indol-3-yl)-3-methyl-1,1-dioxidobenzo[d]isothiazol-2(3H)-yl)piperidin-2-one]	348
CC1c2cc(-c3c[nH]c4cc(F)ccc34)ccc2S(=O)(=O)N1C1CNC(=O)C1 (single isomer, unassigned; (+)) [Example 123, (+)4-(5-(6-fluoro-1H-indol-3-yl)-3-methyl-1,1-dioxidobenzo[d]isothiazol-2(3H)-yl)pyrrolidin-2-one]	501
CC1c2cc(-c3c[nH]c4cc(F)ccc34)ccc2S(=O)(=O)N1C1CNC(=O)C1 (single isomer, unassigned; (+)) [Example 126, (+)-4-(5-(6-fluoro-1H-indol-3-yl)-3-methyl-1,1-dioxidobenzo[d]isothiazol-2(3H)-yl)pyrrolidin-2-one]	77
CNC(=O)CN1C(CO)c2cc(-c3c[nH]c4cc(F)ccc34)ccc2S1(=O)=O (single isomer, unassigned; (+)) [Example 128, (+)-2-(5-(6-fluoro-1H-indol-3-yl)-3-(hydroxymethyl)-1,1-dioxidobenzo[d]isothiazol-2(3H)-yl)-N-methylacetamide]	79
Cn1cnc(CN2C(CO)c3cc(-c4c[nH]c5cc(F)ccc45)ccc3S2(=O)=O)n1 (single isomer, unassigned; (+)) [Example 130, (+)-5-(6-fluoro-1H-indol-3-yl)-3-(hydroxymethyl)-2-((1-methyl-1H-1,2,4-triazol-3-yl)methyl)-2,3-dihydrobenzo[d]isothiazole 1,1-dioxide]	112
O=S1(=O)c2ccc(-c3c[nH]c4cc(F)ccc34)cc2C(CO)N1CCO (single isomer, unassigned; (+)) [Example 131, (+)-5-(6-fluoro-1H-indol-3-yl)-2-(2-hydroxyethyl)-3-(hydroxymethyl)-2,3-dihydrobenzo[d]isothiazole 1,1-dioxide]	182
CC1c2cc(-c3c[nH]c4cc(F)ccc34)ccc2S(=O)(=O)N1CCc1n[nH]c(=O)o1 (single isomer, unassigned; (+)) [Example 134, (+)-5-(2-(5-(6-fluoro-1H-indol-3-yl)-3-methyl-1,1-dioxidobenzo[d]isothiazol-2 (3H)-yl)ethyl)-1,3,4-oxadiazol-2(3H)-one]	53
CNCC1NS(=O)(=O)c2ccc(-c3c[nH]c4cc(F)ccc34)cc21 (single isomer, unassigned; (+)) [Example 138, (+)-5-(6-fluoro-1H-indol-3-yl)-3-((methylamino)methyl)-2,3-dihydrobenzo[d]isothiazole 1,1-dioxide]	234
CS(=O)(=O)NCC1NS(=O)(=O)c2ccc(-c3c[nH]c4cc(F)ccc34)cc21 (single isomer, unassigned; (+)) [Example 140, (+)-N-((5-(6-fluoro-1H-indol-3-yl)-1,1-dioxido-2,3-dihydrobenzo[d]isothiazol-3-yl)methyl)methanesulfonamide]	285
O=S1(=O)c2ccc(-c3c[nH]c4cc(F)ccc34)cc2C(CO)N1CC(O)CO (single isomer, unassigned; (+)) [Example 141, (+)-2-(2,3-dihydroxypropyl)-5-(6-fluoro-1H-indol-3-yl)-3-(hydroxymethyl)-2,3-dihydrobenzo[d]isothiazole 1,1-dioxide]	830
O=S1(=O)c2ccc(-c3c[nH]c4cc(F)ccc34)cc2C(CO)N1CC(O)CO (single isomer, unassigned; (+)) [Example 144, (+)-2-(2,3-dihydroxypropyl)-5-(6-fluoro-1H-indol-3-yl)-3-(hydroxymethyl)-2,3-dihydrobenzo[d]isothiazole 1,1-dioxide]	190
CNC(=O)C(C)N1C(C)c2cc(-c3c[nH]c4cc(F)ccc34)ccc2S1(=O)=O (single isomer, unassigned; (+)) [Example 146, (+)-2-(5-(6-fluoro-1H-indol-3-yl)-3-methyl-1,1-dioxidobenzo[d]isothiazol-2(3H)-yl)-N-methylpropanamide]	54
CCC1NS(=O)(=O)c2ccc(-c3c[nH]c4cc(F)ccc34)cc21 (single isomer, unassigned; (-)) [Example 4, (−)-3-ethyl-5-(6-fluoro-1H-indol-3-yl)-2,3-dihydrobenzo[d]isothiazole 1,1-dioxide]	272
CCCC1NS(=O)(=O)c2ccc(-c3c[nH]c4cc(F)ccc34)cc21 (single isomer, unassigned; (-)) [Example 7, (−)-5-(6-fluoro-1H-indol-3-yl)-3-propyl-2,3-dihydrobenzo[d]isothiazole 1,1-dioxide]	1450
CC(C)C1NS(=O)(=O)c2ccc(-c3c[nH]c4cc(F)ccc34)cc21 (single isomer, unassigned; (-)) [Example 9, (−)-5-(6-fluoro-1H-indol-3-yl)-3-isopropyl-2,3-dihydrobenzo-[d]isothiazole 1,1-dioxide]	82
O=S1(=O)NC(C2CC2)c2cc(-c3c[nH]c4cc(F)ccc34)ccc21 (single isomer, unassigned; (-)) [Example 11, (−)-3-cyclopropyl-5-(6-fluoro-1H-indol-3-yl)-2,3-dihydrobenzo[d]isothiazole 1,1-dioxide]	103
O=S1(=O)NC(CO)c2cc(-c3c[nH]c4cc(F)ccc34)ccc21 (single isomer, unassigned; (-)) [Example 12, (−)-5-(6-fluoro-1H-indol-3-yl)-3-(hydroxymethyl)-2,3-dihydrobenzo[d]isothiazole 1,1-dioxide]	74
NC(=O)C1NS(=O)(=O)c2ccc(-c3c[nH]c4cc(F)ccc34)cc21 (single isomer, unassigned; (-)) [Example 15, (−)-5-(6-fluoro-1H-indol-3-yl)-2,3-dihydrobenzo[d]-Isothiazole-3-carboxamide 1,1-dioxide]	2070
CNC(=O)C1NS(=O)(=O)c2ccc(-c3c[nH]c4cc(F)ccc34)cc21 (single isomer, unassigned; (-)) [Example 17, (−)-5-(6-fluoro-1H-indol-3-yl)-N-methyl-2,3-dihydrobenzo[d]isothiazole-3-carboxamide 1,1-dioxide]	10000
NCC1NS(=O)(=O)c2ccc(-c3c[nH]c4cc(F)ccc34)cc21 (single isomer, unassigned; (-)) [Example 20, (−)-3-(aminomethyl)-5-(6-fluoro-1H-indol-3-yl)-2,3-dihydrobenzo[d]isothiazole 1,1-dioxide]	430
